In the assay the target is T1, recombinant full-length human prolyl endopeptidase (PREP) (Homo sapiens, UniProt P48147).
T1 construct: To recombinant full-length human prolyl endopeptidase (PREP, R&D-Systems, 4308-SE); purchased R&D-Systems 4308-SE
T1 sequence (P48147 1-710): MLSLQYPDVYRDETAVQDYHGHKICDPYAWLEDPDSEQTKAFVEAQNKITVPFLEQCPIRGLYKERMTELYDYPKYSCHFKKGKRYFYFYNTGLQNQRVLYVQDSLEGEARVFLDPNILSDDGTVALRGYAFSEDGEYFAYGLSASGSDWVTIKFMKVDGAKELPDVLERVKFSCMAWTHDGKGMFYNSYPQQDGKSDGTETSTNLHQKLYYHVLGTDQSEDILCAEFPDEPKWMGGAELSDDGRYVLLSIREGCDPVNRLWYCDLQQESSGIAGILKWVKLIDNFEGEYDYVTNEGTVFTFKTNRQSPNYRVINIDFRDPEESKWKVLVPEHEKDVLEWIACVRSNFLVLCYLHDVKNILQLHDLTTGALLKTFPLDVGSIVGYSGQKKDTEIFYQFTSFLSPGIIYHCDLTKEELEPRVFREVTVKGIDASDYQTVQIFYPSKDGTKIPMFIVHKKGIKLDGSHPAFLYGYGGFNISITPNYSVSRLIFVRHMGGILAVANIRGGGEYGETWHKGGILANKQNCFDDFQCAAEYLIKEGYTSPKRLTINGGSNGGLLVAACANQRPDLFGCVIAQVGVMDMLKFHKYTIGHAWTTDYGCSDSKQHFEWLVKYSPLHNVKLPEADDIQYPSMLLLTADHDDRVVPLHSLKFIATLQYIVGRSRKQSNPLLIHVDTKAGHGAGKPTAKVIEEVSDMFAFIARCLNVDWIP
The assay is described as follows: Biochemical human prolyl endopeptidase (PREP) assay with fluorescently labelled substrate. As to conditions: substrate Z-Gly-Pro-AMC 50 μM, 32° C., 60 min; some as mean values from multiple independent determinations. Summed up:
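0.4 nM (final, example) recombinant PREP in pH 7.5 Tris buffer with EDTA, GSH, BSA and Brij-35; compounds at 1 nM to 30 μM. Reaction started with 50 μM Z-Gly-Pro-AMC and followed by fluorescence (ex 360/em 465 nm) at 32° C for 60 min. IC50 interpolated from percent activity based on initial slopes.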
For the molecule `COc1ccc(Cn2nc3n(c2=O)[C@H](C(=O)N2C[C@@H](F)[C@@H](F)C2)CCC3)cc1` [Example 453, (5S)-5-{[(3R,4S)-3,4-Difluoropyrrolidin-1-yl]carbonyl}-2-(4-methoxybenzyl)-5,6,7,8-tetrahydro[1,2,4]triazolo[4,3-a]pyridin-3(2H)-one], the IC50 worked out at 0.375 nM.

For `O=C([C@@H]1CCCc2nn(Cc3ccc(F)c(Cl)c3)c(=O)n21)N1CC[C@H](F)C1` [Example 454, (5S)-2-(3-Chloro-4-fluorobenzyl)-5-{[(3S)-3-fluoropyrrolidin-1-yl]carbonyl}-5,6,7,8-tetrahydro[1,2,4]triazolo[4,3-a]pyridin-3(2H)-one], the IC50 turned out to be 0.063 nM.

`O=C([C@@H]1CCCc2nn(Cc3ccc(F)c(Cl)c3)c(=O)n21)N1CCC(F)(F)C1` [Example 455, (5S)-2-(3-Chloro-4-fluorobenzyl)-5-[(3,3-difluoropyrrolidin-1-yl)carbonyl]-5,6,7,8-tetrahydro[1,2,4]triazolo[4,3-a]pyridin-3(2H)-one]: the IC50 was found to be 0.77 nM.

As to `O=C([C@@H]1CCCc2nn(Cc3ccc(F)c(Cl)c3)c(=O)n21)N1C[C@@H](F)[C@@H](F)C1` [Example 456, (5S)-2-(3-Chloro-4-fluorobenzyl)-5-{[(3R,4S)-3,4-difluoropyrrolidin-1-yl]carbonyl}-5,6,7,8-tetrahydro[1,2,4]triazolo[4,3-a]pyridin-3(2H)-one], the IC50 came out at 0.27 nM.

`O=C([C@@H]1CCCc2nn(Cc3ccc(F)c(Cl)c3)c(=O)n21)N1CC(F)C1` [Example 457, (5S)-2-(3-Chloro-4-fluorobenzyl)-5-[(3-fluoroazetidin-1-yl)carbonyl]-5,6,7,8-tetrahydro[1,2,4]triazolo[4,3-a]pyridin-3(2H)-one]: the IC50 amounted to 1.32 nM.

In the case of `O=C([C@@H]1CCCc2nn(Cc3ccc(C(F)(F)F)c(Cl)c3)c(=O)n21)N1C[C@@H](F)[C@@H](F)C1` [Example 458, (5S)-2-[3-Chloro-4-(trifluoromethyl)benzyl]-5-{[(3R,4S)-3,4-difluoropyrrolidin-1-yl]carbonyl}-5,6,7,8-tetrahydro[1,2,4]triazolo[4,3-a]pyridin-3(2H)-one], the IC50 came to 0.51 nM.

Consider `O=C([C@@H]1CCCc2nn(Cc3ccc(C(F)(F)F)c(Cl)c3)c(=O)n21)N1CC(F)C1` [Example 459, (5S)-2-[3-Chloro-4-(trifluoromethyl)benzyl]-5-[(3-fluoroazetidin-1-yl)carbonyl]-5,6,7,8-tetrahydro[1,2,4]triazolo[4,3-a]pyridin-3(2H)-one], for which the IC50 is 0.2 nM.

On to `O=C([C@@H]1CCCc2nn(Cc3ccc(C(F)(F)F)c(Cl)c3)c(=O)n21)N1CCC(F)(F)C1` [Example 460, (5S)-2-[3-Chloro-4-(trifluoromethyl)benzyl]-5-[(3,3-difluoropyrrolidin-1-yl)carbonyl]-5,6,7,8-tetrahydro[1,2,4]triazolo[4,3-a]pyridin-3(2H)-one], for which the IC50 was 0.17 nM.

For `O=C([C@@H]1CCCc2nn(Cc3ccc(C(F)(F)F)c(Cl)c3)c(=O)n21)N1CC[C@H](F)C1` [Example 461, (5S)-2-[3-Chloro-4-(trifluoromethyl)benzyl]-5-{[(3S)-3-fluoropyrrolidin-1-yl]carbonyl}-5,6,7,8-tetrahydro[1,2,4]triazolo[4,3-a]pyridin-3(2H)-one], the IC50 was determined as 0.625 nM.

With `O=C([C@@H]1CCCc2nn(Cc3ccc(Cl)c(F)c3)c(=O)n21)N1C[C@@H](F)[C@@H](F)C1` [Example 462, (5S)-2-(4-Chloro-3-fluorobenzyl)-5-{[(3R,4S)-3,4-difluoropyrrolidin-1-yl]carbonyl}-5,6,7,8-tetrahydro[1,2,4]triazolo[4,3-a]pyridin-3(2H)-one], the IC50 came to 0.285 nM.

As for `O=C([C@@H]1CCCc2nn(Cc3ccc(Cl)c(F)c3)c(=O)n21)N1CC(F)C1` [Example 463, (5S)-2-(4-Chloro-3-fluorobenzyl)-5-[(3-fluoroazetidin-1-yl)carbonyl]-5,6,7,8-tetrahydro[1,2,4]triazolo[4,3-a]pyridin-3(2H)-one], the IC50 came to 0.225 nM.

Take `O=C([C@@H]1CCCc2nn(Cc3ccc(Cl)c(F)c3)c(=O)n21)N1CCC(F)(F)C1` [Example 464, (5S)-2-(4-Chloro-3-fluorobenzyl)-5-[(3,3-difluoropyrrolidin-1-yl)carbonyl]-5,6,7,8-tetrahydro[1,2,4]triazolo[4,3-a]pyridin-3(2H)-one]: the IC50 came out at 0.51 nM.

`O=C([C@@H]1CCCc2nn(Cc3ccc(Cl)c(F)c3)c(=O)n21)N1CC(F)(F)C1` [Example 465, (5S)-2-(4-Chloro-3-fluorobenzyl)-5-[(3,3-difluoroazetidin-1-yl)carbonyl]-5,6,7,8-tetrahydro[1,2,4]triazolo[4,3-a]pyridin-3(2H)-one]: the IC50 is 2.1 nM.

For the molecule `O=C([C@@H]1CCCc2nn(Cc3ccc(F)c(F)c3)c(=O)n21)N1CC[C@H](F)C1` [Example 466, (5S)-2-(3,4-Difluorobenzyl)-5-{[(3S)-3-fluoropyrrolidin-1-yl]carbonyl}-5,6,7,8-tetrahydro[1,2,4]triazolo[4,3-a]pyridin-3(2H)-one], the IC50 came to 0.41 nM.

Consider `O=C([C@@H]1CCCc2nn(Cc3ccc(F)c(F)c3)c(=O)n21)N1C[C@@H](F)[C@@H](F)C1` [Example 467, (5S)-2-(3,4-Difluorobenzyl)-5-{[(3R,4S)-3,4-difluoropyrrolidin-1-yl]carbonyl}-5,6,7,8-tetrahydro[1,2,4]triazolo[4,3-a]pyridin-3(2H)-one], for which the IC50 stood at 0.49 nM.

In the case of `O=C([C@@H]1CCCc2nn(Cc3ccc(F)c(F)c3)c(=O)n21)N1CCC(F)(F)C1` [Example 468, (5S)-2-(3,4-Difluorobenzyl)-5-[(3,3-difluoropyrrolidin-1-yl)carbonyl]-5,6,7,8-tetrahydro[1,2,4]triazolo[4,3-a]pyridin-3(2H)-one], the IC50 was 1.4 nM.

As for `O=C([C@@H]1CCCc2nn(Cc3ccc(F)c(F)c3)c(=O)n21)N1CC(F)C1` [Example 469, (5S)-2-(3,4-Difluorobenzyl)-5-[(3-fluoroazetidin-1-yl)carbonyl]-5,6,7,8-tetrahydro[1,2,4]triazolo[4,3-a]pyridin-3(2H)-one], the IC50 worked out at 0.795 nM.

As for `O=C([C@@H]1CCCc2nn(Cc3ccc(C(F)(F)F)c(F)c3)c(=O)n21)N1CCC(F)(F)C1` [Example 470, (5S)-5-[(3,3-Difluoropyrrolidin-1-yl)carbonyl]-2-[3-fluoro-4-(trifluoromethyl)benzyl]-5,6,7,8-tetrahydro[1,2,4]triazolo[4,3-a]pyridin-3(2H)-one], the IC50 was determined as 0.82 nM.

For `O=C([C@@H]1CCCc2nn(Cc3ccc(C(F)(F)F)c(F)c3)c(=O)n21)N1CC[C@H](F)C1` [Example 471, (5S)-5-{[(3S)-3-Fluoropyrrolidin-1-yl]carbonyl}-2-[3-fluoro-4-(trifluoromethyl)benzyl]-5,6,7,8-tetrahydro[1,2,4]triazolo[4,3-a]pyridin-3(2H)-one], the IC50 came to 0.425 nM.

`O=C([C@@H]1CCCc2nn(Cc3ccc(C(F)(F)F)c(F)c3)c(=O)n21)N1C[C@@H](F)[C@@H](F)C1` [Example 472, (5S)-5-{[(3R,4S)-3,4-Difluoropyrrolidin-1-yl]carbonyl}-2-[3-fluoro-4-(trifluoromethyl)benzyl]-5,6,7,8-tetrahydro[1,2,4]triazolo[4,3-a]pyridin-3(2H)-one]: the IC50 came out at 0.245 nM.

Consider `O=C([C@@H]1CCCc2nn(Cc3ccc(C(F)(F)F)c(F)c3)c(=O)n21)N1CC(F)C1` [Example 473, (5S)-5-[(3-Fluoroazetidin-1-yl)carbonyl]-2-[3-fluoro-4-(trifluoromethyl)benzyl]-5,6,7,8-tetrahydro[1,2,4]triazolo[4,3-a]pyridin-3(2H)-one], for which the IC50 was determined as 0.17 nM.

As for `O=C([C@@H]1CCCc2nn(Cc3ccc(F)cc3Cl)c(=O)n21)N1C[C@@H](F)[C@@H](F)C1` [Example 474, (5S)-2-(2-Chloro-4-fluorobenzyl)-5-{[(3R,4S)-3,4-difluoropyrrolidin-1-yl]carbonyl}-5,6,7,8-tetrahydro[1,2,4]triazolo[4,3-a]pyridin-3(2H)-one], the IC50 was determined as 0.36 nM.

Take `O=C([C@@H]1CCCc2nn(Cc3ccc(F)cc3Cl)c(=O)n21)N1CC[C@H](F)C1` [Example 475, (5S)-2-(2-Chloro-4-fluorobenzyl)-5-{[(3S)-3-fluoropyrrolidin-1-yl]carbonyl}-5,6,7,8-tetrahydro[1,2,4]triazolo[4,3-a]pyridin-3(2H)-one]: the IC50 came to 0.33 nM.

For the molecule `O=C([C@@H]1CCCc2nn(Cc3ccc(F)cc3Cl)c(=O)n21)N1CC(F)C1` [Example 476, (5S)-2-(2-Chloro-4-fluorobenzyl)-5-[(3-fluoroazetidin-1-yl)carbonyl]-5,6,7,8-tetrahydro[1,2,4]triazolo[4,3-a]pyridin-3(2H)-one], the IC50 is 0.78 nM.

The values are drawn from patent US10722501B2 (BAYER AKTIENGESELLSCHAFT, priority 2016, dated 2020).
